Consider two molecules from US20060046966A1, “Antipicornaviral compounds and compositions, their pharmaceutical uses, and materials for their synthesis” (Agouron Pharmaceuticals, Inc., priority 1998, published 2006).

One series relates to HRV-14. Kind of series: Antirhinoviral H1-HeLa cell culture assay, HRV-14. It counts as cell-based, human rhinovirus. Conditions: Rhinovirus B, HRV14, H1-HeLa, HRV serotype-14, H1-HeLa cells. In a few lines:
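Antiviral EC50 comes from formazan production by infected, compound-treated H1-HeLa cells reaching 50% of the mock-infected, untreated level. Cells grown in MEM/10% FBS were infected at m.o.i. 0.13 and incubated with compound for two days before XTT/PMS addition.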

In another series the test system is HRV (16). Nature of the series: Antirhinoviral H1-HeLa cell culture assay, HRV serotype 16. To be noted: Human rhinovirus sp., H1-HeLa cells, XTT. It counts as cell-based. The method, then:
(§1) In this cell protection assay, the ability of compounds to protect cells against HRV infection was measured by the XTT dye reduction method, which is described in Weislow et al., J. Natl. Cancer Inst. 1989, vol. 81, 577-586.
(§2) H1-HeLa cells were infected with HRV-14 at a multiplicity of infection (m.o.i.) of 0.13 (virus particles/cell) or mock-infected with medium only. Infected or mock-infected cells were resuspended at 8×10^5 cells per mL, and incubated with appropriate concentrations of the compounds to be tested. Two days later, XTT/PMS was added to test plates and the amount of formazan produced was quantified spectrophotometrically at 450/650 nm. The EC50 value was calculated as the concentration of compound that increased the percentage of formazan production in compound-treated, virus-infected cells to 50% of that produced by compound-free, mock-infected cells. The 50% cytotoxic dose (CC50) was calculated as the concentration of compound that decreased the percentage of formazan produced in compound-treated, mock-infected cells to 50% of that produced by compound-free, mock-infected cells. The therapeutic index (TI) was calculated by dividing the CC50 value by the EC50 value.
(§3) All strains of human rhinovirus (HRV) for use in this assay were purchased from American Type Culture Collection (ATCC), except for HRV serotype-14 (produced from the infectious cDNA clone constructed by Dr. Robert Rueckert, Institute for Molecular Virology, University of Wisconsin, Madison, Wis.). HRV stocks were propagated and viral assays were performed in H1-HeLa cells (ATCC). Cells were grown in minimal essential medium with 10% fetal bovine serum, available from Life Technologies (Gaithersburg, Md.).
The compounds were tested against control compounds WIN 51711, WIN 52084, and WIN 54954 (obtained from Sterling-Winthrop Pharmaceuticals), Pirodavir (obtained from Janssen Pharmaceuticals), and Pleconaril (prepared according to the method described in Diana et al., J. Med. Chem 1995, vol. 38, 1355). […]
Background: Tetrazolium dyes change colour on reduction, which living cells bring about.

In another series the test system is HRV (89). Kind of series: Antirhinoviral H1-HeLa cell culture assay, HRV serotype 89. To be noted: Human rhinovirus sp., H1-HeLa cells, XTT. Type of series: cell-based, human rhinovirus. The protocol: as §1, §2, §3
(§4) The compounds were tested against control compounds WIN 51711, WIN 52084, and WIN 54954 (obtained from Sterling-Winthrop Pharmaceuticals), Pirodavir (obtained from Janssen Pharmaceuticals), and Pleconaril (prepared according to the method described in Diana et al., J. Med. Chem 1995, vol. 38, 1355). Antiviral data obtained for the test compounds are shown in Tables 1 and 3, where all data are for HRV serotype-14 unless otherwise noted in parentheses.

Series [1] addresses T1, rhinovirus 3C protease, serotype 16 (Human rhinovirus 16, UniProt Q82122).
T1 construct: Recombinant rhinovirus 3C proteases; made in house
Kind of series: Inhibition of rhinovirus 3C protease (FRET assay), serotype 16. Conditions: Rhinovirus Serotype (16) 3C protease; read-out: kobs/I. It counts as biochemical. The protocol: Stock solutions (50 mM, in DMSO) of various compounds were prepared; dilutions were in the same solvent. Recombinant rhinovirus 3C proteases (see Birch et al., “Purification of recombinant human rhinovirus 14 3C protease expressed in Escherichia coli,” Protein Expr. Pur. 1995, 6(5), 609-618) from serotypes 14, 16, and 2 were prepared by the following standard chromatographic procedures: (1) ion exchange using Q Sepharose Fast Flow from Pharmacia; (2) affinity chromatography using Affi-Gel Blue from Biorad; and (3) sizing using Sephadex G-100 from Pharmacia. Each assay sample contained 2% DMSO, 50 mM tris pH 7.6, 1 mM EDTA, a test compound at the indicated concentration, approximately 1 μM substrate, and 50-100 nM protease. The kobs/I values were obtained from reactions initiated by addition of enzyme rather than substrate. RVP activity was measured in the fluorescence resonance energy transfer assay. The substrate was (N-terminal) DABCYL-(Gly-Arg-Ala-Val-Phe-Gln-Gly-Pro-Val-Gly)-EDANS. In the uncleaved peptide, the EDANS fluorescence was quenched by the proximal DABCYL moiety. When the peptide was cleaved, the quenching was relieved, and activity was measured as an increase in fluorescence signal. […] The data in the column designated kobs/[I] were measured from progress curves in enzyme start experiments.

The target of series [2] is T2, rhinovirus 3C protease, serotype 89 (Human rhinovirus A serotype 89, UniProt P07210).
T2 construct: Recombinant rhinovirus 3C proteases
Nature of the series: Inhibition of rhinovirus 3C protease (FRET assay), serotype 89. It counts as biochemical. Conditions: Rhinovirus Serotype (89) 3C protease; read-out: kobs/I.

Series [3] addresses T3, rhinovirus 3C protease, serotype 2 (Human rhinovirus 2, UniProt P04936).
T3 construct: Recombinant rhinovirus 3C proteases; made in house
Nature of the series: Inhibition of rhinovirus 3C protease (FRET assay), serotype 2. It counts as biochemical. To be noted: Rhinovirus Serotype (2) 3C protease; read-out: kobs/I. The method, then: Stock solutions (50 mM, in DMSO) of various compounds were prepared; dilutions were in the same solvent. Recombinant rhinovirus 3C proteases (see Birch et al., “Purification of recombinant human rhinovirus 14 3C protease expressed in Escherichia coli,” Protein Expr. Pur. 1995, 6(5), 609-618) from serotypes 14, 16, and 2 were prepared by the following standard chromatographic procedures: (1) ion exchange using Q Sepharose Fast Flow from Pharmacia; (2) affinity chromatography using Affi-Gel Blue from Biorad; and (3) sizing using Sephadex G-100 from Pharmacia. Each assay sample contained 2% DMSO, 50 mM tris pH 7.6, 1 mM EDTA, a test compound at the indicated concentration, approximately 1 μM substrate, and 50-100 nM protease. The kobs/I values were obtained from reactions initiated by addition of enzyme rather than substrate. RVP activity was measured in the fluorescence resonance energy transfer assay. The substrate was (N-terminal) DABCYL-(Gly-Arg-Ala-Val-Phe-Gln-Gly-Pro-Val-Gly)-EDANS. In the uncleaved peptide, the EDANS fluorescence was quenched by the proximal DABCYL moiety. When the peptide was cleaved, the quenching was relieved, and activity was measured as an increase in fluorescence signal. In Table 1, all data are for rhinovirus 3C protease from HRV serotype-14 (produced from the infectious cDNA clone constructed by Dr. Robert Rueckert, Institute for Molecular Virology, University of Wisconsin, Madison, Wis.). […] The data in the column designated kobs/[I] were measured from progress curves in enzyme start experiments.

A further series concerns HRV (10). Kind of series: Antirhinoviral H1-HeLa cell culture assay, HRV serotype 10. Type of series: cell-based, human rhinovirus. To be noted: Human rhinovirus sp., H1-HeLa, H1-HeLa cells, XTT. The method, then: as §1, §2, §3, §4
Series [4] has as its target T4, rhinovirus 3C protease from HRV serotype-14 (Human rhinovirus 14, UniProt P03303).
T4 construct: Recombinant rhinovirus 3C proteases; made in house
Nature of the series: Inhibition of rhinovirus 3C protease (FRET assay), serotype 14. To be noted: HRV serotype-14 3C protease; progress curves in enzyme start experiments; read-out: Protease Inhibition kobs/[I]. It counts as biochemical. Summed up:
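Recombinant 3C protease (50-100 nM) with ~1 μM DABCYL-GRAVFQGPVG-EDANS FRET substrate in 50 mM Tris pH 7.6, 1 mM EDTA, 2% DMSO. Cleavage read as increase in EDANS fluorescence. kobs/[I] derived from progress curves of enzyme-initiated reactions.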

Another series has as its system H1-HeLa cells. Nature of the series: Cytotoxicity in uninfected H1-HeLa cells (anticoxsackieviral assay, XTT). To be noted: 50% cytotoxic dose, Table 4. It counts as cell-based. The protocol:
The ability of compounds to protect cells against either CAV-21 or CVB-3 infection was measured by the XTT dye reduction method. This method is described in Weislow et al., J. Natl. Cancer Inst. 1989, vol. 81, 577-586. H1-HeLa cells were infected with CAV-21 or CVB-3 at a multiplicity of infection (m.o.i.) of 0.025 or 0.075, respectively, or mock-infected with medium only. H1-HeLa cells were plated at 4×10^4 cells per well in a 96-well plate and incubated with appropriate concentrations of the test compound. One day (CVB-3) or two days (CAV-21) later, XTT/PMS was added to test plates and the amount of formazan produced was quantified spectrophotometrically at 450/650 nm. The EC50 was calculated as the concentration of compound that increased the formazan production in compound-treated, virus-infected cells to 50% of that produced by compound-free, uninfected cells. The 50% cytotoxic dose (CC50) was calculated as the concentration of compound that decreased formazan production in compound-treated, uninfected cells to 50% of that produced in compound-free, uninfected cells. The therapeutic index TI) was calculated by dividing the CC50 by the EC50.

pEC50: −log10 of the molar value. Where two headings read alike, the source gives them in different places.

T1 sequence (Q82122 1511-1693): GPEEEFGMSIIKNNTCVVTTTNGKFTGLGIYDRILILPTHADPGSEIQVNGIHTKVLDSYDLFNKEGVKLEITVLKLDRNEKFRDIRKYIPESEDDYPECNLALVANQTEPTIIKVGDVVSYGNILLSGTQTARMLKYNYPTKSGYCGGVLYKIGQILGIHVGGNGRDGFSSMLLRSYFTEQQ
T3 sequence (P04936 1508-1690): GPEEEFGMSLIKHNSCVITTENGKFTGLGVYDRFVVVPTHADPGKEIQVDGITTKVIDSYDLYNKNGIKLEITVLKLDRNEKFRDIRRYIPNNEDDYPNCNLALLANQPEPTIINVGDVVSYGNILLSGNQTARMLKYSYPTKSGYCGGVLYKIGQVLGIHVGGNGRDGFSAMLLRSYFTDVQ
T4 sequence (P03303 1538-1719): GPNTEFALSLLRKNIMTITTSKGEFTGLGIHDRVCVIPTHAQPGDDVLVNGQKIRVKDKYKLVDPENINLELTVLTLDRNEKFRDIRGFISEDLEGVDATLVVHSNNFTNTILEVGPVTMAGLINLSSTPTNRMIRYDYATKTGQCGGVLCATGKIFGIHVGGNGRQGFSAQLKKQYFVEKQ
T2 sequence (P07210 1522-1704): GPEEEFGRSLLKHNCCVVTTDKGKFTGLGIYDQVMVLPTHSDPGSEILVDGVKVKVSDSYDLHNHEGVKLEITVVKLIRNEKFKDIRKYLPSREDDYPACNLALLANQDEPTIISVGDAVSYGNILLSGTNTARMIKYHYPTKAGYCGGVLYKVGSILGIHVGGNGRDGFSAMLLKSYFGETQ

`CCOC(=O)/C=C/[C@H](CCC(N)=O)NC(=O)[C@H](Cc1ccccc1)NC(=O)[C@H](CC(C)C)NC(=O)OCc1ccccc1` [Comparison Compound #2, Ethyl-3-(Cbz-L-Leu-L-Phe-L-Gln)-E-Propenoate, reference compound]: the pEC50 was 6.21 in the series with HRV-14 (Table 1, XTT dye reduction, read-out: Cell Protection EC50); 6.21 in the series on HRV-14 (Table 3, XTT, read-out: EC50); 5.64 in the series on HRV (16); 5.20 in the series with HRV (89); 6.22 in the series with HRV (10). Moreover, the kinact/KI in series [1] was 6500 M⁻¹ s⁻¹; in [2], 3400 M⁻¹ s⁻¹; in series [3], 2000 M⁻¹ s⁻¹; in series [4], 25000 M⁻¹ s⁻¹.

As for `Cc1cc(CCCCCOc2c(Cl)cc(C3=NCCO3)cc2Cl)on1` [WIN 54954], the CC50 in the series on H1-HeLa cells is above 100000 nM.

By pEC50 is commonly meant −log10 of the EC50, conventionally taken in molar units. For orientation: CC50 means the concentration at which the toxic effect on the cells reaches its halfway point.
